Values of other authors, collected in patent US20090191608A1, “Pancreatic Islet Cell Preparation and Transplantation” (Baylor Research Institute, priority 2008, published 2009).

Experiments:
[1] = in vivo

Row | Compound | Half-life [1] | Time to reach a new steady-state level after the change of dose [1] | Occurrence of mouth ulcers (most common side effect) | Incidence of heparin-induced thrombocytopenia (in vivo)
1 | CO[C@H]1C[C@@H]2CC[C@@H](C)[C@@](O)(O2)C(=O)C(=O)N2CCCC[C@H]2C(=O)O[C@H]([C@H](C)C[C@@H]2CC[C@@H](O)[C@H](OC)C2)CC(=O)[C@H](C)/C=C(\C)[C@@H](O)[C@@H](OC)C(=O)[C@H](C)C[C@H](C)/C=C/C=C/C=C/1C [Sirolimus] | approximately 3 days | 2 weeks | up to 85% | –
2 | Enoxaparin [Lovenox] | – | – | – | 0.2%
